Columns and labels:
[1] = Chromatographic hydrophobicity index of compound at pH 2.0 by reversed-phase HPLC analysis; type: ADME
[2] = Chromatographic hydrophobicity index of compound at pH 7.4 by reversed-phase HPLC analysis; type: ADME
[3] = Chromatographic hydrophobicity index of compound at pH 10.5 by reversed-phase HPLC analysis; type: ADME
[4] = Metabolic stability in mouse liver microsomes assessed as half life at 0.5 uM measured upto 30 mins in presence of NADPH by LC-MS/MS analysis; type: ADME, Microsome
[5] = Metabolic stability in mouse liver microsomes assessed as intrinsic clearance at 0.5 uM measured upto 30 mins in presence of NADPH by LC-MS/MS analysis; type: ADME, Microsome; conditions: read-out: CLH
in vitro = conditions: mouse
[6] = Permeability of the compound assessed as membrane retention; type: ADME

## CN(Cc1ccccc1)Cc1ccc(COc2ccc3c(CO)cc(=O)oc3c2)cc1
[1]
  CHI: 53
[2]
  CHI: 98
[3]
  CHI: 102.1

## CN(CCc1cccs1)Cc1ccc(COc2ccc3c(CO)cc(=O)oc3c2)cc1
[1]
  CHI: 53.7
[2]
  CHI: 92.9
[3]
  CHI: 97.8

## CN(Cc1ccc(COc2ccc3c(CO)cc(=O)oc3c2)cc1)Cc1cncnc1
[1]
  CHI: 35.9
[2]
  CHI: 62.6
[3]
  CHI: 61.4

## CN(Cc1ccc(COc2ccc3c(CO)cc(=O)oc3c2)cc1)Cc1cccnc1
[1]
  CHI: 32.9
[2]
  CHI: 70.6
[3]
  CHI: 70.9

## CN(Cc1ccc(COc2ccc3c(CO)cc(=O)oc3c2)cc1)Cc1ccco1
[1]
  CHI: 47.2
[2]
  CHI: 83.5
[3]
  CHI: 85.1

## CN(CCc1ccsc1)Cc1ccc(COc2ccc3c(CO)cc(=O)oc3c2)cc1
[1]
  CHI: 54.3
[2]
  CHI: 85.5
[3]
  CHI: 95.2
[4]
  half-life at 0.5 µM: 13.5 min
[5]
  microsomal CLint at 0.5 µM: 103 µL/min/mg
In vitro
  Papp at 2 h, 20 µM: 5.9 ×10⁻⁶ cm/s

## CN(Cc1ccncc1)Cc1ccc(COc2ccc3c(CO)cc(=O)oc3c2)cc1
[1]
  CHI: 32.3
[3]
  CHI: 72

## CN(CCc1cccnc1)Cc1ccc(COc2ccc3c(CO)cc(=O)oc3c2)cc1
[1]
  CHI: 29.9
[2]
  CHI: 65.3
[3]
  CHI: 69.3
[4]
  half-life at 0.5 µM: 5.97 min
[5]
  microsomal CLint at 0.5 µM: 233 µL/min/mg

## CN(Cc1ccc(COc2ccc3c(CO)cc(=O)oc3c2)cc1)Cc1nccs1
[1]
  CHI: 42.7
[2]
  CHI: 76.7
[3]
  CHI: 76.1

## CN(Cc1ccc(COc2ccc3c(CO)cc(=O)oc3c2)cc1)Cc1ccsc1
[1]
  CHI: 50.7
[2]
  CHI: 90.3
[3]
  CHI: 95
[4]
  half-life at 0.5 µM: 22.7 min
[5]
  microsomal CLint at 0.5 µM: 61.2 µL/min/mg
In vitro
  Papp at 2 h, 20 µM: 8 ×10⁻⁶ cm/s

## CN(Cc1ccc(COc2ccc3c(CO)cc(=O)oc3c2)cc1)Cc1cscn1
[1]
  CHI: 42.2
[2]
  CHI: 68.3
[3]
  CHI: 69.9

## CN(Cc1ccc(COc2ccc3c(CO)cc(=O)oc3c2)cc1)Cc1cccs1
[1]
  CHI: 50.4
[2]
  CHI: 96.5
[3]
  CHI: 98

## CN(Cc1ccc(COc2ccc3c(CO)cc(=O)oc3c2)cc1)Cc1ncc[nH]1
[1]
  CHI: 34.6
[2]
  CHI: 51.6
[3]
  CHI: 50.7
[6]
  R%: ~ 50%

Reference: ChEMBL document CHEMBL5550168, “Structure-based design of multitargeting ChEs-MAO B inhibitors based on phenyl ring bioisosteres: AChE/BChE selectivity switch and drug-like characterization” (Eur J Med Chem, 2024)
